Measured values: ChEMBL document CHEMBL1159224, “A new cytotoxic dihydroxy sterol from the soft coral Alcyonium patagonicum” (J Nat Prod, 1995)
Converted amounts (≈) assume the structure as drawn.

System: P388
Assay: Cytotoxicity against mouse P388 cells
Assay type: functional, cell-based

Which IC50 does the source give for C=C(CC[C@@H](C)[C@H]1CC[C@H]2[C@@H]3C[C@@H](O)C4=C[C@@H](O)CC[C@]4(C)[C@H]3CC[C@]12C)C(C)C here?
Its IC50 is 1 µg/mL (≈ 2.41 µM).
